Earlier results on one compound are cited in patent publication US20230045688A1 (priority 2020, published 2023).

The data set has as its system SARS-CoV. The settings on record: disruption of oligosaccharide formation; Vincent et al. 2005; Savarino et al. 2006.

In the case of `CCN(CC)CCCC(C)Nc1ccnc2cc(Cl)ccc12` (stereo not shown) [chloroquine], the SARS-CoV infectivity entry is “significantly decreases SARS-CoV infectivity”.
